Assay results taken from patent US4582827A, “Pesticidal diphenylaziridines” (priority 1983, dated 1986).

Experiments:
[1] = tested on: tobacco hornworm (Manduca sexta) larvae; test: Tobacco hornworm growth and developmental responses to feeding on diets containing the compounds; assay type: in vivo; conditions: for oral activity: diet, Example 2
[2] = tested on: tobacco hornworm larvae (newly ecdysed fifth-instar); test: Topical application to tobacco hornworm larvae; assay type: in vivo, Manduca sexta
Method: The test compounds were dissolved either in acetone or hexane and applied to the integument of the test insect with a micro applicator. Newly ecdysed fifth-instar tobacco hornworm larvae weighing between 1-1.5 g were used and toxicity data were obtained in the same way as previously described.

[3] = tested on: Salmonella typhimurium strains TA 98, TA 100, TA 1535, TA 1537, TA 1538, TA 1978; test: Ames assay (spot test), revertant colonies; assay type: cell-based
Method: This means that aziridine compounds, 1, 10, or 11, will not cause mutations in DNA arising from potential changes in frame shift and/or base pairing. Compounds 1, 10 and 11 were tested for mutagenic properties using the following experimental procedure.
Potential mutagenic and carcinogenic properties of the compounds were evaluated with standard Ames assay procedures (Ames et al, "Mutation Res.", 31, p. 347, 1975). This assay used strains of Salmonella typhimurium selected for sensitivity and specificity in being reverted from a histidine requirement back to prototrophy by a wide variety of mutagens. Potential changes in frameshift were evaluated using strains TA 98, TA 1537 and TA 1538, while changes in base pairing were detected using strains TA 100 and TA 1535. In addition, strain TA 1978 was used, in combination with TA 1538, to evaluate whether the agent killed bacteria by damage to DNA that could be repaired by this strain. Initially, the compounds were screened using the spot test, in which 1000 μgm of material dissolved in 10 μl of DNSO was applied to the middle of the plate.
Dose-response tests were not performed because the results were negative. All the tests were carried out in the presence and absence of an S9 rat liver preparation and contained a positive control (2-acetylaminofluorene,AAF) and a negative control (DMSO).

H. virescens = test: Incorporation into H. virescens diet; assay type: in vivo, Heliothis virescens; conditions: as much as 20 mM in diet
Method: Compounds 1, 10, 11, 13 and 14 were incorporated into H. virescens diet in the same manner as M. Sexta. Diets containing as much as 20 mM of each compound had little effect on larval development time, pupal weight or time to adult emergence.

[4] = Acute oral toxicity test using the rat; conditions: in vivo
From the text: In these studies, it has been determined that the 1,2-diphenylaziridines of this invention have low mammalian toxicity.
Immediate effects, resulting from insecticide toxicity, are usually related to the principal toxic action of the compound.

Estigmene acrea (larvae) = test: Topical application study, Estigmene acrea larvae; assay type: in vivo; conditions: 1250 μg/g, approx. 800 mg, w/in 24 hr
From the text: (§1) Preliminary tests with topical applications of Compound 13 have been conducted on a number of insect species representing 5 different orders. Since the same amount of compound was used, regardless of body size, the smaller species received a larger dose/body mass. More extensive work will be required to establish LD50 values. […]

[5] = tested on: Ostrinia nubilalis (larvae); test: Topical application study, Ostrinia nubilalis larvae; assay type: in vivo; conditions: 6250 μg/g, approx. 80 mg; nearing pupation size at time of treatment
From the text: as §1

[6] = tested on: Blattella germanica (adult); test: Topical application study, Blattella germanica adult; assay type: in vivo; conditions: 7150 μg/g, approx. 70 mg, w/in 24 hr
From the text: as §1

H. virescens larvae = test: Topical application to H. virescens larvae; assay type: in vivo, Heliothis virescens; conditions: 1500 ppm topical, 200 mg 5th instars
[7] = tested on: Periplaneta americana (adult); test: Topical application study, Periplaneta americana adult; assay type: in vivo; conditions: 666 μg/g, approx. 750 mg, w/in 24 hr
From the text: as §1

[8] = tested on: Podisus maculiventris (nymphs & adults); test: Topical application study, Podisus maculiventris nymphs & adults; assay type: in vivo; conditions: 10,000 μg/g
From the text: as §1

Musca domestica (Adult) = test: Topical application study, Musca domestica adult; assay type: in vivo; conditions: 25,000 μg/g
From the text: as §1

[9] = tested on: Malacosoma americanum (larvae); test: Topical application study, Malacosoma americanum larvae; assay type: in vivo; conditions: 1000 μg/g, approx. 500 mg, w/in 24 hr
From the text: as §1

[10] = tested on: Blaberus discoidalis (nymphs); test: Topical application study, Blaberus discoidalis nymphs; assay type: in vivo; conditions: 1000 μg/g, approx. 500 mg, w/in 24 hr
From the text: as §1

Musca autumnalis (Adult) = test: Topical application study, Musca autumnalis adult; assay type: in vivo; conditions: 25,000 μg/g
From the text: as §1

[11] = tested on: Hyphantria cunea (larvae); test: Topical application study, Hyphantria cunea larvae; assay type: in vivo; conditions: 5000 μg/g, approx. 100 mg, w/in 24 hr
From the text: as §1

[12] = tested on: Popillia japonica (larvae); test: Topical application study, Popillia japonica larvae; assay type: in vivo; conditions: 500 μg/g, approx. 250 mg, w/in 24 hr
From the text: as §1

[13] = 5 mM in diet, all tests began with 15 larvae

## Clc1ccc(N2CC2c2ccccc2Cl)cc1Cl (centres unmarked) [Compound 10, 1-(3-4-dichlorophenyl)-2-(2-chlorophenyl)aziridine]
[1]; 5 mM in diet
  % Adult Emergence: 7%
  % Malformed Adults: 100%
  % Pupation: 80%
  Days to Max Wt: 7.5 ± .3 days
  Max Larval Wt: 5.69 ± .27 g
  Mean No. of Eggs: 55 ± 0
  No. of female Adults: 1
  feeding time required to attain reduced maximum weight: extended the feeding time
  pupal mortality: significant pupal mortality
  reduction in the maximum weight of hornworm larvae: 30-50%
  wrinkled or crumpled wings of moths: observed in significant numbers of moths
[1]; [13]
  Total No. of Adults: 1
[1]
  oral activity: good oral activity
[1]; summary of Tables I and II
  pupal mortality: caused pupal mortality
[2]; 2000 μg/larvae (1600 ppm)
  topical effect: ineffective
[3]; strain TA 98, +S9
  Mean number of revertant colonies per plate, TA 98 +S9: 45.3 colonies per plate
[3]; strain TA 98, -S9
  Mean number of revertant colonies per plate, TA 98 -S9: 26.7 colonies per plate
[3]; strain TA 100, +S9
  Mean number of revertant colonies per plate, TA 100 +S9: 56.0 colonies per plate
[3]; strain TA 100, -S9
  Mean number of revertant colonies per plate, TA 100 -S9: 26.3 colonies per plate
[3]; strain TA 1535, +S9
  Mean number of revertant colonies per plate, TA 1535 +S9: 20.3 colonies per plate
[3]; strain TA 1535, -S9
  Mean number of revertant colonies per plate, TA 1535 -S9: 25.0 colonies per plate
[3]; strain TA 1537, +S9
  Mean number of revertant colonies per plate, TA 1537 +S9: 13.7 colonies per plate
[3]; strain TA 1537, -S9
  Mean number of revertant colonies per plate, TA 1537 -S9: 9.0 colonies per plate
[3]; strain TA 1538, +S9
  Mean number of revertant colonies per plate, TA 1538 +S9: 35.7 colonies per plate
[3]; strain TA 1538, -S9
  Mean number of revertant colonies per plate, TA 1538 -S9: 12.0 colonies per plate
[3]; strain TA 1978, +S9
  Mean number of revertant colonies per plate, TA 1978 +S9: 202.0 colonies per plate
[3]; strain TA 1978, -S9
  Mean number of revertant colonies per plate, TA 1978 -S9: 196.0 colonies per plate
[3]; with and without S9 / mammalian liver enzymes
  mutagenicity: not mutagenic
H. virescens
  effect on larval development time, pupal weight or time to adult emergence: little effect
[4]
  LD50: > 2000 mg/kg

## Fc1ccc(N2CC2c2ccccc2Cl)cc1 (centres unmarked) [Compound 13]
Estigmene acrea (larvae)
  mortality at 1250 µg/g: 33%
[1]; 1 mM in diet
  % Adult Emergence: 100%
  % Adults: 100%
  % Malformed Adults: 7%
  % Pupation: 100%
  Days to Max Wt: 6.7 ± .2 days
  Max Larval Wt: 9.50 g
  Mean No. of Eggs: 71 ± 8
  No. of female Adults: 11
  Total No. of Adults: 15
[1]; 2.5 mM in diet
  % Adult Emergence: 86%
  % Adults: 86%
  % Malformed Adults: 0%
  % Pupation: 100%
  Days to Max Wt: 8.7 ± 0.5 days
  Max Larval Wt: 8.03 g
  Mean No. of Eggs: 21 ± 9
  No. of female Adults: 9
  Total No. of Adults: 12
  maximum larval weight and mean number of eggs: reduced maximum larval weight and the mean number of eggs
[1]; 5 mM in diet
  % Adult Emergence: 13%
  % Malformed Adults: 50%
  % Pupation: 13%
  Days to Max Wt: 10.0 ± 4.2 days
  Max Larval Wt: 6.13 ± .62 g
  No. of female Adults: 0
  larval mortality: all or nearly all larvae died
  weight gain of surviving larvae: no weight gain for 4 or more days
  wrinkled or crumpled wings of moths: observed in significant numbers of moths
[1]; 5 mM in diet, day two
  larvae dead by day two: 60%
[1]; [13]
  Total No. of Adults: 2
[1]
  oral activity: good oral activity
[1]; in 24-72 hours, summary of Tables I and II
  larval mortality (acute toxicity): 100%
[1]; summary of Tables I and II
  time to 100% larval mortality: 24 to 72 h
[5]
  Result: No effect
[6]
  mortality at 7150 µg/g: 100%
H. virescens larvae
  mortality: failed to kill any of the larvae
  symptoms: produced some of the symptoms characteristic of this group of compounds
[2]; Manduca sexta, topical, 125 μg/larva (100 μg/g or 100 ppm), within 24 hr
  mortality at 125 µg/larva: 60%
[2]; topical
  topical activity against the tobacco hornworm (comparison in words): the greatest topical activity
[2]; topical, 50 and 25 ppm
  larval size and number of eggs: reduced larval size and smaller number of eggs
[7]
  mortality at 666 µg/g: 100%
[8]
  time to 100% mortality: ≤ 1.2 h
[8]; Podisus maculiventris, topical, approx. 50 mg, w/in 1.2 hr
  mortality at 10000 µg/g: 100%
Musca domestica (Adult)
  time to 100% mortality: ≤ 1.5 h
Musca domestica (Adult); Musca domestica, topical, approx. 20 mg, 2/in 1.5 hr
  mortality at 25000 µg/g: 100%
[9]
  mortality at 1000 µg/g: 100%
[10]
  mortality at 1000 µg/g: 100%
H. virescens
  effect on larval development time, pupal weight or time to adult emergence: little effect
Musca autumnalis (Adult)
  time to 100% mortality: ≤ 2 h
Musca autumnalis (Adult); Musca autumnalis, topical, approx. 20 mg, w/in 2 hr
  mortality at 25000 µg/g: 100%
[11]
  mortality at 5000 µg/g: 50%
[12]
  mortality at 500 µg/g: 100%
